Holding throughout (experiment): NCI tumour cell line growth inhibition, 48 h
For experiment [1], the system named is A549 NSCLC.
Experiment [2] relates to HT29 colon.
Experiment [3] concerns K-562 leukemia.
Experiment [4] deals with MALME-3M melanoma.
Experiment [5] deals with NCI/ADR-RES ovarian.
For experiment [6], the system named is OVCAR-4 ovarian.
Experiment [7] relates to SK-OV-3 ovarian.
Experiment [8] deals with TK-10 renal.
For experiment [9], the system named is UACC-257 melanoma.
Experiment [10] relates to UACC-62 melanoma.

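Briefly, cells in 96-well plates were exposed to five compound concentrations for 48 h, and endpoints were estimated by linear interpolation. GI50 is the concentration that inhibits growth by half. TGI: concentration producing complete growth inhibition.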

Regarding `COc1ccc(OC)c(C2=C(c3cn(C)c4ccccc34)C(=O)NC2=O)c1`, the GI50 in [1] is above 25000 nM; in experiment [2], above 21500 nM; in experiment [3], 17100 nM; in experiment [4], above 25000 nM; in experiment [5] it was above 25000 nM; in experiment [6], above 25000 nM. The GI50 is above 25 µM in [7], above 25000 nM in experiment [8], above 25 µM in [9] and above 25000 nM in [10]. Moreover, the TGI in experiment [1], in experiment [2], in experiment [3], in [4], in experiment [5] and in experiment [6] was above 25 µM each time. In addition, the TGI in experiment [7], in [8], in [9] and in experiment [10] was above 25 µM each time.

With `CS(=O)(=O)Nc1cc(-c2ccc3ncc(C#N)c(Nc4ccc(F)c(Cl)c4)c3c2)cnc1Cl`, the GI50 in [1] is 468 nM; in [2], 290 nM; in [3], 201 nM; in [4], 35.4 nM; in experiment [5] it was 633 nM; in experiment [6], 243 nM. The GI50 in experiment [7] was 0.194 µM; in [8], 166 nM; in [9] it was 0.194 µM; in experiment [10], 73 nM. Also, the TGI is 3.12 µM in [1]; 2.3 µM in [2]; above 100 µM in experiment [3]; 0.278 µM in experiment [4]; above 100 µM in experiment [5]; 0.731 µM in experiment [7]. Besides, the TGI in experiment [8] turned out to be 0.793 µM; in [9] it was 2.14 µM; in [10], 0.596 µM.

Consider `O=C1/C(=C/c2ccc(Cl)cc2)CN(Cc2cn(CCCNc3ccnc4cc(Cl)ccc34)nn2)C/C1=C\c1ccc(Cl)cc1`, for which the GI50 was 1150 nM in experiment [1]; 270 nM in experiment [2]; 289 nM in [3]; 1710 nM in experiment [4]; 1650 nM in [5]; 500 nM in experiment [6]. Besides, the GI50 was 1.84 µM in experiment [7], 1700 nM in experiment [8], 1.72 µM in [9] and 1770 nM in experiment [10]. The TGI in [1] was found to be 2.56 µM; in [2], 0.775 µM; in [3] it was 3.79 µM; in [4], 3.28 µM; in experiment [5], 6.51 µM; in experiment [6] it was 2.38 µM. The TGI in [7] is 3.52 µM; in [8], 3.15 µM; in [9], 3.25 µM; in experiment [10], 3.35 µM.

For `COc1ccc(-c2nc3sccn3c2-c2ccnc(NCCNS(=O)(=O)c3ccc(C(F)(F)F)cc3)n2)cc1`, the GI50 in experiment [1] is 3980 nM; in experiment [2], 2450 nM; in experiment [3] it was 411 nM; in experiment [4] it was 2350 nM; in experiment [5], 3120 nM; in experiment [6], 1990 nM. Also, the GI50 is 4.44 µM in [7], 2870 nM in experiment [8], 4.41 µM in experiment [9] and 485 nM in experiment [10]. For the same compound, the TGI in [1] was above 100 µM; in experiment [2] it was above 100 µM; in [3] it was above 100 µM; in experiment [4], 5.22 µM; in [5] it was above 100 µM; in experiment [6], 39.6 µM. Besides, the TGI in [7] is above 100 µM; in experiment [8], above 100 µM; in experiment [9], above 100 µM; in experiment [10], 3.4 µM.

As to `CC(C)[C@@]12C[C@@H](OC(=O)COC(=O)c3ccccc3)[C@@](C)(O1)[C@@H]1CC[C@@H](C)[C@H]1[C@@H]2OC(=O)/C=C/c1ccccc1`, the GI50 in experiment [1] was above 100000 nM; in [2] it was above 100000 nM; in experiment [3] it was 62700 nM; in experiment [4] it was above 100000 nM; in experiment [5], 470 nM; in [6], above 63100 nM. Further, the GI50 in experiment [7] was above 100 µM; in experiment [8] it was above 100000 nM; in experiment [9], above 100 µM; in [10] it was above 100000 nM. Also, the TGI in experiment [1], in experiment [2], in [3], in experiment [4], in [5] and in experiment [6] was above 100 µM in each case. Moreover, the TGI in experiment [7], in [8], in [9] and in [10] was above 100 µM each time.

Turning to `CC(=O)Oc1ccc(C2OC(c3ccc4ccccc4c3OC(C)=O)=NN2C(C)=O)c(OC(C)=O)c1` (centres undefined), the GI50 in [1] is 412 nM; in experiment [2], 1620 nM; in experiment [3], 402 nM; in experiment [4] it was 407 nM; in [5], 394 nM; in [6] it was 291 nM. Further, the GI50 in experiment [7] is 0.675 µM; in experiment [8] it was 774 nM; in experiment [9] it was 0.331 µM; in [10], 331 nM. Besides, the TGI in experiment [1] is above 48.5 µM; in [2], above 52.8 µM; in [3], above 48.6 µM; in experiment [4], 5.12 µM; in [5], above 74.1 µM; in experiment [6] it was above 75.9 µM. Besides, the TGI in [7] was above 52.3 µM; in experiment [8] it was above 53.8 µM; in [9], 6.59 µM; in [10] it was 9.04 µM.

As for `O=S(=O)(NCCNc1nccc(-c2c(-c3ccc(F)cc3)nc3sccn23)n1)c1ccc(O)cc1`, the GI50 was 3280 nM in experiment [1]; 2090 nM in experiment [2]; 2180 nM in [3]; 3920 nM in experiment [4]; 19500 nM in experiment [5]; 3520 nM in experiment [6]. For the same compound, the GI50 in experiment [7] is 9.17 µM; in [8], 4810 nM; in [9], 5.84 µM; in [10], 2350 nM. For the same compound, the TGI in experiment [1] is 43.1 µM; in experiment [2], 37.4 µM; in experiment [3], above 100 µM; in experiment [4] it was 21.5 µM; in [5] it was above 100 µM; in experiment [6], 21.6 µM. In addition, the TGI is 73 µM in experiment [7], 26.3 µM in experiment [8], 34.7 µM in experiment [9] and 18.8 µM in experiment [10].

The record behind these values is PubChem BioAssay (NCI).
